Data on 9 compounds can be found in ChEMBL document CHEMBL3714744, “Aryl sulfonamides” (2009).

Calls of active or inactive are those of the source. No cut-off for these calls is given here.

For one assay, the system named is Mus musculus. The experiment in a line: Inhibition of inflammatory bowel disease-associated growth retardation in MDR1a-knockout mouse at 50 mg/kg, sc dosed twice daily for 14 consecutive weeks starting at age 10 weeks. Type of assay: functional, organism-based.
Conditions: not given
On to `CC(C)(C)c1ccc(S(=O)(=O)Nc2ccc(Cl)cc2C(=O)c2ccncc2)cc1`, for which the inhibition entry was “Active”.

Another assay has as its target T1, C-C chemokine receptor type 9 (Homo sapiens, UniProt P51686).
T1 sequence (P51686 whole entry): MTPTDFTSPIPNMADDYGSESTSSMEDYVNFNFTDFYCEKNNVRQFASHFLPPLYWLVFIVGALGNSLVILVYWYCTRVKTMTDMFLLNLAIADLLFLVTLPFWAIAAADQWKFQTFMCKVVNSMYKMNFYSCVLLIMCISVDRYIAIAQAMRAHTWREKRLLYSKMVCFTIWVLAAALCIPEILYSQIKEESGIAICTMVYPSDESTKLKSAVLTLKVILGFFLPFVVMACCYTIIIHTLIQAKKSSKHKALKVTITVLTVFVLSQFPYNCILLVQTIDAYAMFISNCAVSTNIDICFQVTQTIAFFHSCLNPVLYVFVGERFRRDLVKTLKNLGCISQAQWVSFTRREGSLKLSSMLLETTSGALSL
The experiment in a line: Antagonist activity against CCR9 in human MOLT4 cells assessed as inhibition of human recombinant TECK-induced calcium response pre-treated before TECK stimulation by Flou-4-AM dye based FLIPR assay.
Conditions: not given
Type of assay: functional, cell-based, MOLT-4.
For the compound `COC(=O)CCc1ccc(S(=O)(=O)Nc2ccc(Cl)cc2C(=O)c2ccnc(C)c2)cc1`, the concentration for half-maximal inhibition (IC50) (usually the concentration that gives 50% inhibition) is less than 100 nM.
Consider `O=C(c1ccncc1)c1cc(Cl)ccc1NS(=O)(=O)c1ccc([N+](=O)[O-])cc1`, for which the concentration for half-maximal inhibition (IC50) is less than 100 nM.
On the same count and under the same terms, with `CS(=O)(=O)c1ccc(S(=O)(=O)Nc2ccc(Cl)cc2C(=O)c2cccnc2)cc1` the figure was less than 100 nM.
Regarding `Cc1cc(C(=O)c2cc(Cl)ccc2NS(=O)(=O)c2ccc(S(C)(=O)=O)cc2)ccn1`, the half-maximal inhibitory concentration (IC50) was less than 100 nM.
For the compound `CC(=O)c1ccc(S(=O)(=O)Nc2ccc(Br)cc2C(=O)c2ccncc2)cc1`, the IC50 is less than 100 nM.

The same assay, now with this note: molt-4.
With `Cc1ncccc1C(=O)c1cc(Cl)ccc1NS(=O)(=O)c1ccc(OC(F)(F)F)cc1`, the IC50 entry was “in the range around 100 nM”.
For `COc1ccc(S(=O)(=O)Nc2ccc(Cl)cc2C(=O)c2ccccn2)cc1`, the IC50 result was “in the range around 100 nM”.
Still for that read-out and setting: with `Cc1ncccc1C(=O)c1cc(Cl)ccc1NS(=O)(=O)c1ccc(-c2cnco2)cc1` the entry was “in the range around 1000 nM”.
